From US20140213513A1 (Sanofi, priority 2012, published 2014)
Values after ≈ are worked out from the molar mass of the structure shown. Where two headings read alike, the source gives them in different places. *1 amine or outer side, *2 acyl side, *3 side chain or, on linkers, in order; H or OH if unused. Where a SMILES comes first, the peptide text is derived from it. Side-chain parts run from the residue outwards. [ ]: non-standard residue; d: D form. The star is where a group is joined. γGlu = O=C(O)[C@H](CCC(=O)[*:2])N[*:1]; Palmitoyl = CCCCCCCCCCCCCCCC(=O)*; Aib = CC(C)(N)C(=O)O

Columns and labels:
[1] = target: T1, human GLP-1 receptor (hGLP-1 R) (Homo sapiens, UniProt P43220); test: cAMP response of HEK-293 cells stably expressing human GLP-1 receptor (HTRF); assay type: cell-based; settings: Table 7; cAMP formation
T1 construct: expressed in transfected cells
T1 sequence (P43220 24-463): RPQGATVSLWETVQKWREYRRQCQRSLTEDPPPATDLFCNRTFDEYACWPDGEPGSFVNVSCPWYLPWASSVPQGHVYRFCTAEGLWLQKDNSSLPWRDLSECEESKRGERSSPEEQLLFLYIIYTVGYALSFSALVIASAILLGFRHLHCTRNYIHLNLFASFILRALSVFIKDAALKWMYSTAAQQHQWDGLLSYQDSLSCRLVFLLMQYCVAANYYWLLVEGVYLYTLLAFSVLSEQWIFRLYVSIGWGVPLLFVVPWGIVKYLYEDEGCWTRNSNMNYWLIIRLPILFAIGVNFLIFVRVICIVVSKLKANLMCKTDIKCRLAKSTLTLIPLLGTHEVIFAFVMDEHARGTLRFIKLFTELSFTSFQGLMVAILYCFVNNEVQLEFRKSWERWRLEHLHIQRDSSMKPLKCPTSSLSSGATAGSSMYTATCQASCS
How it was run: (§1)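 Stably transfected HEK-293 cells, accutase-harvested; assay buffer 1×HBSS/20 mM HEPES/0.1% BSA/2 mM IBMX; 400000 cells/ml; compound 30 min, RT; cAMP by HTRF kit.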

[2] = target: T2, human GIP receptor (hGIP R) (Homo sapiens, UniProt P48546); test: cAMP response of HEK-293 cells stably expressing human GIP receptor (HTRF); assay type: cell-based; settings: Table 7; cAMP formation
T2 construct: expressed in transfected cells
T2 sequence (P48546 22-466): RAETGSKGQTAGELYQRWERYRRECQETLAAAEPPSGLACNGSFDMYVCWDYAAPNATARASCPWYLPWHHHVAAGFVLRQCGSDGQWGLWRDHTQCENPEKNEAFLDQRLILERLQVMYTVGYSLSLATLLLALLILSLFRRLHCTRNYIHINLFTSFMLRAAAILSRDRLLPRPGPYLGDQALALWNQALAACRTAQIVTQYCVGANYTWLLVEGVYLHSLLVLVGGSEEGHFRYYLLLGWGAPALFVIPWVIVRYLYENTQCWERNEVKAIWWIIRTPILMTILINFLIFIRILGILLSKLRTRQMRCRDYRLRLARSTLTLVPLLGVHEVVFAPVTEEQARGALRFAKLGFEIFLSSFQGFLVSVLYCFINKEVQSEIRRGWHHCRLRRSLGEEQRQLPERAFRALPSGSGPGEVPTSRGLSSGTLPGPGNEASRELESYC
How it was run: as §1

[3] = target: T3, human glucagon receptor (hGLUC R) (Homo sapiens, UniProt P47871); test: cAMP response of HEK-293 cells stably expressing human glucagon receptor (HTRF); assay type: cell-based; settings: Table 7; cAMP formation
T3 construct: expressed in transfected cells
T3 sequence (P47871 26-477): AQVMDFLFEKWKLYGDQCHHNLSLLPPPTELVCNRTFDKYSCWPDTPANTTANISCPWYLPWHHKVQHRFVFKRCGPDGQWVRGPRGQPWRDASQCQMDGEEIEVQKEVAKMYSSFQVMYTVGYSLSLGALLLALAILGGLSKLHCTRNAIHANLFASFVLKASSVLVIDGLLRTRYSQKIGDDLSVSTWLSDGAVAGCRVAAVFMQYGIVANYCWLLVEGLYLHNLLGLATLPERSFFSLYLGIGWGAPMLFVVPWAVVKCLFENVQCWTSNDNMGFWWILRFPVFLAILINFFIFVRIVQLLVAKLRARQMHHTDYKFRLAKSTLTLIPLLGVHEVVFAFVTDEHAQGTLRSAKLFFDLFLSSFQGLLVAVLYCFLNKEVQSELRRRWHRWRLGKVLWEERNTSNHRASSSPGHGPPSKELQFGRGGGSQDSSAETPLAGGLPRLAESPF
How it was run: as §1

[4] = Solubility testing in buffer (HPLC-UV of supernatant); assay type: physicochemical
[5] = pH 4.5, target concentration 1.0 mg/mL, read-out: Solubility (pH 4.5)
[6] = pH 7.4, target concentration 1.0 mg/mL, read-out: Solubility (pH 7.4)

CCCCCCCCCCCCCCCC(=O)N[C@@H](CCC(=O)NCCCC[C@H](NC(=O)[C@H](CCC(N)=O)NC(=O)[C@@H](NC(=O)[C@H](CO)NC(=O)[C@H](CC(C)C)NC(=O)[C@H](CC(=O)O)NC(=O)[C@H](CO)NC(=O)[C@@H](NC(=O)[C@H](Cc1ccccc1)NC(=O)[C@@H](NC(=O)CNC(=O)[C@H](CCC(N)=O)NC(=O)C(C)(C)NC(=O)[C@@H](N)Cc1ccc(O)cc1)[C@@H](C)O)[C@@H](C)O)[C@@H](C)CC)C(=O)N[C@@H](CC(=O)O)C(=O)N[C@@H](CCCCN)C(=O)N[C@@H](CCCNC(=N)N)C(=O)N[C@@H](CCCNC(=N)N)C(=O)N[C@@H](C)C(=O)N[C@@H](CCC(N)=O)C(=O)N[C@@H](CC(=O)O)C(=O)N[C@@H](Cc1ccccc1)C(=O)N[C@H](C(=O)N[C@@H](CCC(=O)O)C(=O)N[C@@H](Cc1c[nH]c2ccccc12)C(=O)N[C@@H](CC(C)C)C(=O)N[C@@H](CCCCN)C(=O)N[C@@H](C)C(=O)NCC(=O)NCC(=O)N1CCC[C@H]1C(=O)N[C@@H](CO)C(=O)N[C@@H](CO)C(=O)NCC(=O)N[C@@H](C)C(=O)N1CCC[C@H]1C(=O)N1CCC[C@H]1C(=O)N1CCC[C@H]1C(=O)N[C@@H](CO)C(N)=O)[C@@H](C)CC)C(=O)O [SEQ ID NO: 53, Y-Aib-Q-G-T-F-T-S-D-L-S-I-Q-K(yE-x53)-DKRRAQDFIEWLKAGGPSSGAPPPS-NH2] (H-Y[Aib]QGTFTSDLSIQK([γGlu-Palmitoyl])DKRRAQDFIEWLKAGGPSSGAPPPS-NH2)
EC50 [1]: 13.6 pM | EC50 [2]: 93.2 pM | EC50 [3]: 7.9 pM | solubility at 2 h [4, 5]: 932 µg/mL (≈ 203 µM) | solubility at 2 h [4, 6]: 958 µg/mL (≈ 209 µM)

CCCCCCCCCCCCCCCC(=O)N[C@@H](CCC(=O)NCCCC[C@H](NC(=O)[C@H](CCC(N)=O)NC(=O)[C@@H](NC(=O)[C@H](CO)NC(=O)[C@H](CC(C)C)NC(=O)[C@H](CC(=O)O)NC(=O)[C@H](CO)NC(=O)[C@@H](NC(=O)[C@H](Cc1ccccc1)NC(=O)[C@@H](NC(=O)CNC(=O)[C@H](CCC(N)=O)NC(=O)C(C)(C)NC(=O)[C@@H](N)Cc1ccc(O)cc1)[C@@H](C)O)[C@@H](C)O)[C@@H](C)CC)C(=O)N[C@@H](CCC(=O)O)C(=O)N[C@@H](CCCCN)C(=O)N[C@@H](CCCNC(=N)N)C(=O)N[C@@H](C)C(=O)N[C@H](C(=O)NC(C)(C)C(=O)N[C@@H](CC(C)C)C(=O)N[C@@H](Cc1ccccc1)C(=O)N[C@H](C(=O)N[C@@H](CCC(=O)O)C(=O)N[C@@H](Cc1c[nH]c2ccccc12)C(=O)N[C@@H](CC(C)C)C(=O)N[C@@H](CCCCN)C(=O)N[C@@H](C)C(=O)NCC(=O)NCC(=O)N1CCC[C@H]1C(=O)N[C@@H](CO)C(=O)N[C@@H](CO)C(=O)NCC(=O)N[C@@H](C)C(=O)N1CCC[C@H]1C(=O)N1CCC[C@H]1C(=O)N1CCC[C@H]1C(=O)N[C@@H](CO)C(N)=O)[C@@H](C)CC)C(C)C)C(=O)O [SEQ ID NO: 24, Y-Aib-Q-G-T-F-T-S-D-L-S-I-Q-K(yE-x53)-E-K-R-A-V-Aib-L-F-I-E-W-L-K-A-G-G-P-S-S-G-A-P-P-P-S-NH2] (H-Y[Aib]QGTFTSDLSIQK([γGlu-Palmitoyl])EKRAV[Aib]LFIEWLKAGGPSSGAPPPS-NH2)
EC50 [1]: 19.2 pM | EC50 [2]: 10.4 pM | EC50 [3]: 284 pM | solubility at 2 h [4, 5]: > 1000 µg/mL | solubility at 2 h [4, 6]: 976 µg/mL (≈ 217 µM)
